# Values quoted from earlier work as cited in US20240100001A1, “DENATONIUM SALT FOR USE IN PREVENTING, PREVENTING PROGRESSION AND TREATING FATTY LIVER DISEASES” (AARDVARK THERAPEUTICS INC., priority 2021, published 2024).
# Read-outs that look alike come from different tables or passages of the source.
# Experiments:
# [1] = system: C57BL/6 male mice fed with the methionine- and choline-deficient (MCD) diet for 4 weeks; details: 5 mg/kg/day PO for the last 2 weeks; cited from earlier work
# [2] = system: Male DIAMOND mice fed high fat sugar water diet (WDSW) for 24 weeks; details: cited from earlier work
# [3] = system: Male C57BL/6N mice fed choline-deficient, L-amino acid-defined, high-fat diet (CDAHFD); details: cited from earlier work
# [4] = system: Male C57BL/6 mice fed a CDAHFD diet for 12 weeks; details: cited from earlier work
# [5] = system: Male C57BL/6J mice fed with the AMLN diet for 50 weeks; details: 30 mg/kg, PO, QD for 8 weeks; cited from earlier work
# [6] = system: Male C57BL/6J mice fed high fat diet for 20 weeks; details: 0.3 mg/kg/day PO for 20 weeks; cited from earlier work
# [7] = system: C57Bl6/J mice fed a MCD diet for 3 weeks; details: 10 or 30 mg/kg, PO, QD for 3 weeks; cited from earlier work
# [8] = system: C57BL/6 mice treated with 60% high fat diet for 36 weeks; details: 0.3-3 mg/kg/day PO for 24 days; cited from earlier work
# [9] = system: Male C57BL/6 mice fed a CDAHFD diet for 20 weeks; details: cited from earlier work
# [10] = system: Male C57BL/6 mice fed a fast food diet (FF diet) for 330 days; details: dose unknown, cited from earlier work
# [11] = system: AMLN model: C57BL/6J mice placed on AMLN diet for 30 weeks; details: 0.03-0.9 mg/kg for the last 4 weeks; cited from earlier work
# [12] = system: A mouse model of diet-induced NASH; details: 10 mg/kg/day PO for eight weeks; cited from earlier work
# NAFLD/NASH = details: cited from earlier work; for benefit in NAFLD/NASH: agents tried so far
# [13] = system: patients with NASH and IGT or T2DM; details: women and men; cited from earlier work
# [14] = system: FXR-deficient mice placed on a high-fat, high-fructose, highcholesterol diet (HFFCD) for 50 weeks; details: cited from earlier work
# [15] = system: STAM model: Streptozotocin-injected 2-day old male C57BL/6 mice fed high-fat diet; details: cited from earlier work
# [16] = system: STAM model: Streptozotocin-injected 2-day old male C57BL/6 mice fed high-fat diet; details: 3 mg/kg, twice weekly, cited from earlier work
# [17] = system: Male C57BL/6J mice fed with the AMLN diet for 32 weeks; details: SC for 12 weeks, Semaglutide 10 nmol/kg, cited from earlier work
# patients with NASH = details: cited from earlier work
# [18] = 30 mg/kg/day PO QD for the last 8 weeks
# [19] = treatment started after FF diet induction for 240 days
# [20] = 60 mg/kg IV twice a week for 4 weeks, early treatment cohort
# [21] = SC for 2 weeks (start at Week 7)
# [22] = ALT-801 5 or 10 nmol/kg (both doses)
compound,measurement,setting,value
CCCCCCCCCCCCCCCCCCCC(=O)N[C@H]1CC[C@@]2(C)[C@@H](C1)C[C@@H](O)[C@@H]1[C@@H]2C[C@H](O)[C@]2(C)[C@@H]([C@H](C)CCC(=O)O)CC[C@@H]12 [Aramchol],features of steatohepatitis,[1],Reduced
same,fibrosis,[1],Reduced
same,protein expression of COL1A1 in the liver,[1],decreased protein
COc1cccc(C(=O)COc2ccc(CC3SC(=O)NC3=O)cc2)c1 (centres unmarked) [Azemiglitazone],ballooning,[2]; 30 mg/kg/day PO QD for the last 8 weeks (16-24 weeks),decreased
same,NASH CRN fibrosis score,[2]; [18],group was 0.
same,mice progressed from simple steatosis to NASH compared to the control group,[2]; [18],fewer MSDC-
same,serum level of ALT,[2]; [18],reduced serum
same,serum level of AST,[2]; [18],reduced serum
same,serum level of fasting insulin,[2]; [18],reduced serum
same,NAFLD Activity Score (NAS),"[2]; 30 mg/kg/day PO QD for the last 8 weeks, trended lower",(NAS) trended
CCCCOCCOc1ccc(-c2ccc3c(c2)/C=C(/C(=O)Nc2ccc([S@@+]([O-])Cc4cncn4CCC)cc2)CCCN3CC(C)C)cc1 [Cenicriviroc],intrahepatic accumulation of inflammatory macrophages,[3]; 30 mg/kg/day for 4 or 14 weeks,Inhibited
same,fibrosis on histopathology,"[3]; only with 30 mg/kg/day for 14 weeks, IP",improved
CC[C@H]1[C@@H](O)[C@@H]2[C@H](CC[C@]3(C)[C@@H]([C@H](C)CCNC(=O)NS(=O)(=O)c4ccc(C(C)(C)C)cc4)CC[C@@H]23)[C@@]2(C)CC[C@@H](O)C[C@@H]12 [EDP-305],fibrogenic gene expression,[4]; High dose (30 mg/kg),decreased
same,fibrosis progression on histopathology,[4]; High-dose (30 mg/kg) daily PO from the beginning of week 6,mg/kg) halted
CSc1ccc(C(=O)/C=C/c2cc(C)c(OC(C)(C)C(=O)O)c(C)c2)cc1 [Elafibranor],fibrosis severity,[5],reduced
same,histopathological score of hepatic steatosis,[5],reduced
same,histopathological score of inflammation,[5],reduced
C[C@H](NC(=O)C(=O)Nc1ccccc1C(C)(C)C)C(=O)N[C@@H](CC(=O)O)C(=O)COc1c(F)c(F)cc(F)c1F [Emricasan],HOMA-IR,[6],Decreased
same,ballooning on histopathology,[6],Improved
same,fibrosis on histopathology,[6],Improved
same,fibrotic and inflammatory gene signature,[6],Decreased
same,inflammation on histopathology,[6],Improved
same,serum level of ALT,[6],Decreased
same,serum level of AST,[6],Decreased
same,serum level of cholesterol,[6],Decreased
same,serum level of glucose,[6],Decreased
O=C(O)CCCc1cc2cc(Cl)ccc2n1S(=O)(=O)c1ccc2ncsc2c1 [Lanifibranor],inflammation on histopathology,[7],prevented
same,liver triglyceride levels,[7],decreased
same,plasma alanine aminotransferase levels,[7],reduced plasma
same,serum triglyceride levels,[7],decreased
same,steatosis on histopathology,[7],prevented
CC(C)c1cc(Oc2c(Cl)cc(-n3nc(C#N)c(=O)[nH]c3=O)cc2Cl)n[nH]c1=O [Resmetirom],fibrosis in treated livers,[8],No detectable
same,inflammation in treated livers,[8],No detectable
same,insulin sensitivity,[8],Improved
same,reduced serum level of ALT,[8],"(46%), free"
same,reduced serum level of cholesterol,[8],(67%).
same,steatosis in treated livers,[8],No detectable
CCO[C@@H](Cc1ccc(OCCn2c(C)ccc2-c2ccc(SC)cc2)cc1)C(=O)O [Saroglitazar],ballooning,[9]; 3 mg/kg PO for 12 weeks,reduced or no
same,hepatic steatosis,[9]; 3 mg/kg PO for 12 weeks,reversal of
same,vacuolation,[9]; 3 mg/kg PO for 12 weeks,reduced or no
same,Liver lipid (TG) accumulation attenuated,[9]; 3 mg/kg,79%
same,hepatic fibrogenic and inflammatory gene expression,[9]; 3 mg/kg,also reduced
same,liver TNFα levels,[9]; 3 mg/kg,also reduced
same,liver collagen content attenuated,[9]; 3 mg/kg,41%
same,reduced serum level of ALT,[9]; 3 mg/kg,"(60%), AST"
same,reduced serum level of MCP1,[9]; 3 mg/kg,MCP1 (45%).
Cc1cc(F)c(C(=O)Nc2cccc(-c3nncn3C(C)C)n2)cc1-n1cnc(C2CC2)c1 [Selonsertib],Reduced liver cholesterol,[10],45%
same,Reduced serum cholesterol,[10],14%
same,serum bile acids,[10],reduced serum
same,serum cholate reduction,[10],cholate (91%
same,serum deoxycholate reduction,[10],(90% reduction).
same,fibrosis,[10]; [19],reduced liver
same,insulin resistance,[10]; [19],reduced liver
same,liver steatosis,[10]; [19],reduced liver
O=C(O)c1cc(F)c2nc(N3[C@@H]4CC[C@H]3C[C@@H](OCc3c(-c5ccccc5OC(F)(F)F)noc3C3CC3)C4)sc2c1 [Tropifexor],fibrosis,[11],reduced
same,hepatic inflammation cell populations,[11],reduced mRNA
same,inflammation,[11],reduced
same,mRNA levels of fibrogenic markers,[11],reduced mRNA
same,steatosis,[11],reduced
Cc1cc(OCP2(=O)OCC[C@@H](c3cccc(Cl)c3)O2)cc(C)c1Cc1ccc(O)c(C(C)C)c1 (some centres unmarked) [VK2809],NAS score mean improvement,[12],score (a 40%
same,"all subcomponents of NAS (inflammation, ballooning, and steatosis)",[12],Improvements
same,liver content of cholesterol,[12],improved liver
same,liver content of collagen,[12],improved liver
same,liver content of hydroxyproline,[12],improved liver
same,liver content of triglyceride,[12],improved liver
same,liver fibrosis on histopathology,[12],improved NAS
same,plasma cholesterol,[12],reduced plasma
same,plasma triglycerides,[12],reduced plasma
CCCCCCCCCCC[C@@H](C[C@@H]1OC(=O)[C@H]1CCCCCC)OC(=O)[C@H](CC(C)C)NC=O [orlistat],benefit compared to diet and exercise (weight loss alone),NAFLD/NASH; in vivo,no significant benefit
CC(=O)CCCCn1c(=O)c2c(ncn2C)n(C)c1=O [pentoxifylline],benefit in NAFLD/NASH,NAFLD/NASH,unsuccessfully or with only modest benefit
CCc1ccc(CCOc2ccc(CC3SC(=O)NC3=O)cc2)nc1 (centres unmarked) [pioglitazone],"risk of weight gain, edema, congestive heart failure, and osteoporotic fractures",[13],significantly increased risk
O=C1O[C@H]([C@@H](O)CO)C(O)=C1O [vitamin C],benefit in NAFLD/NASH,NAFLD/NASH,unsuccessfully or with only modest benefit
"Cc1c(C)c2c(c(C)c1O)CC[C@@](C)(CCC[C@H](C)CCC[C@H](C)CCCC(C)C)O2 [vitamin E, α-tocopherol]",benefit in NAFLD/NASH,NAFLD/NASH,unsuccessfully or with only modest benefit
Aldafermin,hepatic expression of inflammatory and fibrotic biomarkers,[14]; delivered by AAV at Week 16,decreased
same,hepatocellular fibrosis,[14]; delivered by AAV at Week 16,reduced
same,serum level of ALT,[14]; delivered by AAV at Week 16,reduced serum
same,serum level of AST,[14]; delivered by AAV at Week 16,reduced serum
same,spleen weight,[14]; delivered by AAV at Week 16,reduced liver
same,steatosis,[14]; delivered by AAV at Week 16,not impact
same,liver weight,[14]; delivered by adeno-associated viral vector (AAV) at Week 16,reduced liver
Belapectin,"expression of pathological indicators including iNOS, CD36, and a-smooth muscle actin",[15]; 60 mg/kg IV twice a week for 4 weeks,reduced the
same,fat deposition,"[15]; 60 mg/kg IV twice a week for 4 weeks, early treatment cohort (from Week 6)",Decreased fat
same,hepatocellular ballooning,[15]; [20],Decreased fat
same,inflammatory infiltrate,[15]; [20],Decreased fat
same,NAS score,"[15]; early treatment cohort (from Week 6), significant",improved NAS
same,NAS versus vehicle control,"[15]; late treatment cohort (from Week 9), did not reach significance",improvement
Pegbelfermin,mean grade for hepatocellular ballooning,[16]; [21],decreased
same,mean grade for lobular inflammation,[16]; [21],decreased
same,mean grade for steatosis,[16]; [21],decreased
same,decrease of mean serum fibrosis biomarker Pro-C3,[16]; SC for 2 weeks,C3 by 44%
same,liver triglycerides,[16]; SC for 2 weeks,improved
same,liver/body weight ratio,[16]; SC for 2 weeks,"(−20%), as well"
same,plasma triglycerides,[16]; SC for 2 weeks,improved
same,whole blood glucose,[16]; SC for 2 weeks,"glucose (−30%),"
semaglutide,NAS overall score,[17]; [22],decreased liver
same,liver weight,[17]; [22],decreased liver
same,liver TG level,[17]; ALT-801 5 or 10 nmol/kg,decreased liver
same,liver content of fibrosis markers,[17]; ALT-801 5 or 10 nmol/kg,decreased liver
same,liver total cholesterol level,[17]; ALT-801 5 or 10 nmol/kg,decreased liver
same,plasma ALT level,[17]; ALT-801 5 or 10 nmol/kg,decreased liver
same,percentage of patients with NASH resolution and no worsening of fibrosis,patients with NASH; 0.1-mg group,40%
same,percentage of patients with NASH resolution and no worsening of fibrosis,patients with NASH; 0.2-mg group,36%
same,mean percent weight loss,patients with NASH; 0.4-mg group,13%
same,percentage of patients with NASH resolution and no worsening of fibrosis,patients with NASH; 0.4-mg group,59%
same,percentage of patients with an improvement in fibrosis stage vs placebo,patients with NASH; daily subcutaneous,did not show a significant between-group difference
same,incidence of constipation,"patients with NASH; human, in vivo",22%
same,incidence of nausea,"patients with NASH; human, in vivo",42%
same,incidence of vomiting,"patients with NASH; human, in vivo",15%
same,patients with malignant neoplasms,"patients with NASH; human, in vivo",1%
same,"patients with neoplasms (benign, malignant, or unspecified)","patients with NASH; human, in vivo",15%
